Values of other authors, collected in US20240238196A1 (Shilpa Medicare Limited, priority 2021, published 2024).

- Solubility in organic solvents (organic solvents, slightly soluble, according to CHMP assessment report for Xarelto): 1000 to 10000 µg/mL
- Solubility in water (in words) (water): practically insoluble
Structure (SMILES): O=C(NC[C@H]1CN(c2ccc(N3CCOCC3=O)cc2)C(=O)O1)c1ccc(Cl)s1 [Rivaroxaban, 5-Chloro-N-({(5S)-2-oxo-3-[4-(3-oxo-4-morpholinyl)phenyl]-1,3-oxazolidin5-yl}methyl)-2-thiophenecarboxamide]
